Measured values reported in patent publication US20100173018A1, “Microbicidal Compositions Including Activated Nitrogenous Compound and 1,4-Bis(Bromoacetoxy)-2-Butene, and Methods Of Using The Same” (BUCKMAN LABORATORIES INTERNATIONAL, INC., priority 2009, published 2010).
Entries after “also recorded” stand apart in the source; their conditions may differ.

Experiments:
[1] = cited from earlier work
[2] = tested on: Enterobacter aerogenes (ATCC 13048); assay: Evaluation of bactericidal activity (MIC, Bactometer impedance) with checkerboard synergy evaluation; format: cell-based; conditions: value <1 denotes synergistic activity
Procedure: A. Evaluation of Bactericidal Activity. This test method provides a technique for testing compounds for their effectiveness to control bacterial growth. MIC values represent the Minimum Inhibitory Concentration, defined as the lowest level of compound required to produce a 90% kill of a given organism.
Cell suspension from an 18 to 24 hour bacterial culture of Staphylococcus aureus (ATCC 6538) or Bacillus subtilis (ATCC 6633) or Enterobacter aerogenes (ATCC 13048) to attain a desired cell concentration. Using a McFarland nephelometer barium sulfate standard or some other suitable method, adjust the concentration of the bacterial suspension so that a final concentration of between 1×10^4 and 1×10^5 cells per ml is achieved when 100 μl of the inoculum is added to 5 ml of basal salts substrate. […]
• Bacterial growth in the tubes is measured by monitoring impedance levels on the Bactometer. • Dispense 1 ml aliquots of Modified WILKINS Chalgren Broth (Bactometer Media) into Bactometer wells; add 25 μl of treatment from the incubated tubes. […]
Synergy was measured by checkerboards dilutions (Yan and Hancock, 2001), in which one compound is diluted along the rows of test tubes and the other is diluted along the columns. […] The result is expressed as the Fractional Inhibitory Concentration Index (FIC), calculated as follows: […]

[3] = tested on: white water (ww) sample with a sulfite content of 12.8 ppm; assay: Synergism in the presence of sulfite: ATP measurement in white water, percent inhibition; format: cell-based; conditions: 10 min; BBAB 80 ppm active alone; ATP at 10 min; sulfite 12.8 ppm
Procedure: Synergism in the presence of sulfite. The effectiveness of the actives and the blend were evaluated in a white water (ww) sample with a sulfite content of 12.8 ppm. ATP measurements were performed in duplicate and percent inhibition calculated as a measure of antimicrobial efficacy. The raw data was converted to percent inhibition with use of the following formulation: % Inhibition=[(u−t)/u]×100 where: u=ATP value of untreated ww at time10 min t=ATP value of treated ww at time10 min.

[4] = tested on: filamentous bacteria isolate from a paper mill slime deposit (Flectobacillus species); assay: Synergy evaluation against filamentous bacteria (checkerboard, CFU on agar); format: cell-based
Procedure: Synergy evaluation against filamentous bacteria. The checkerboard method was used to determine the Fractional Inhibitory Index (FIC) as a predictor of synergy between Activated N-Compound and Busan 1210 (BBAB) against a pure isolate of filamentous bacteria cultured from a paper mill slime deposit. The isolate was identified by 16 S ribosomal RNA sequencing technique. Gene assembly and data analysis was performed using MicroSeq data analysis and identification software; the isolate was identified as a Flectobacillus species. Modified Basal Salts Buffer was inoculated with a suspension of the bacterial isolate to yield a final concentration of 1×10^5 cells per ml. Using a delay between additions, Busan 1210 (BBAB) was added 20 minutes prior to the addition of monochloramine (MCA). After a 3 hours exposure time, the treatments were sub-cultured onto Nutrient and Plate Count Agar (PCA) and incubated at 28° C. for 48 hours. The plates were examined for colony forming units (CFU) and compared to untreated control. [formula] Synergy is expressed as a Fractional inhibitory Concentration Index (FIC), calculated as follows: FIC=[A]/[a]+[B]/[b] where, [A] and [B]=MIC of the compounds A and B when in combination [a] and [b]=MIC of the compounds A and B when alone

| Compound | solubility in isopropenol, n-butenol, glycerol, ethylene glycol, propylene glycol, and diethylene glycol ([1]; alcohols and glycols as listed) | solubility in dimethylformamide and ethylene glycol monomethylether ([1]; dimethylformamide, ethylene glycol monomethylether) | solubility in water ([1]; water) | [A]/MICA + [B]/MICB (FIC index) [2] | inhibition at 80 ppm [3] [%] | FIC ([4]; FIC=[A]/[a]+[B]/[b]) | MIC of compound when alone ([a] / [b]) ([4]; alone, 3 hours exposure, sub-cultured 28° C. for 48 hours) |
| --- | --- | --- | --- | --- | --- | --- | --- |
| O=C(CBr)OC/C=C\COC(=O)CBr [BBAB, 1,4-bis(bromoacetoxy)-2-butene] | soluble | soluble | extremely low; also recorded: water insoluble | 1.0 | 22.8 |  |  |
| NCl [MCA, monochloramine] |  |  |  |  |  | 1.0 | 10.0(a) |
